One experiment relates to gastric emptying. As to conditions: in vivo; cited from earlier work.
Experiment [1] has as its system GI transit. Particulars: cited from earlier work.
Experiment [2] has as its target T1, 5-HT4 receptor (Rattus norvegicus, UniProt Q62758).
T1 construct: One 2 cm segment of intrathoracic esophagus proximal to the diaphragm was removed from male rats; from tissue; host or cells: rat intrathoracic oesophagus, inner tunica muscularis mucosae
Nature of the experiment: cell-based. As to conditions: carbachol (3 μM)-contracted rat TMM, 37° C., tissues from 5 rats; read-out: 5-HT4 Agonism (Rat TMM) In Vitro Assay: EC50 values. Here is the method:
(§1) 5-HT4 agonist activity was determined in the in vitro rat tunica muscularis mucosae (TMM) assay described herein. (Baxter et al., Naunyn Schmied Arch. Pharmacol, 1991, 343, 439). […] One with skill in the art could determine the activity of the compounds of the present invention using the methodology of these assays, described herein, without undue experimentation.
Schmied. Arch. Pharmacol. 343, 439 (1991)]. Agonist activity was determined utilizing relaxation of carbachol-contracted rat tunica muscularis mucosae (TMM). One 2 cm segment of intrathoracic esophagus proximal to the diaphragm was removed from male rats, weighing approximately 300 gm, and the outer muscle layers removed. The inner tunica muscularis mucosa was mounted under 0.2-0.3 g of tension in a tissue bath containing oxygenated Tyrode's solution at 37° C. […] Following a 30 minute equilibrium period, tissues were isometrically contracted with carbachol (3 μM) to obtain a tonic contraction. A stable plateau was obtained within 20 minutes when test compound was added cumulatively to relax the muscle strip. EC50 values were obtained for each agonist in tissues from 5 rats.

The target in a further experiment is T2, 5-HT3 receptor (Rattus norvegicus, UniProt P35563).
T2 construct: Brain cortices were obtained from male rats and a membrane fraction prepared by standard techniques; from tissue; host or cells: rat brain cortex membranes
T2 sequence (P35563 24-483): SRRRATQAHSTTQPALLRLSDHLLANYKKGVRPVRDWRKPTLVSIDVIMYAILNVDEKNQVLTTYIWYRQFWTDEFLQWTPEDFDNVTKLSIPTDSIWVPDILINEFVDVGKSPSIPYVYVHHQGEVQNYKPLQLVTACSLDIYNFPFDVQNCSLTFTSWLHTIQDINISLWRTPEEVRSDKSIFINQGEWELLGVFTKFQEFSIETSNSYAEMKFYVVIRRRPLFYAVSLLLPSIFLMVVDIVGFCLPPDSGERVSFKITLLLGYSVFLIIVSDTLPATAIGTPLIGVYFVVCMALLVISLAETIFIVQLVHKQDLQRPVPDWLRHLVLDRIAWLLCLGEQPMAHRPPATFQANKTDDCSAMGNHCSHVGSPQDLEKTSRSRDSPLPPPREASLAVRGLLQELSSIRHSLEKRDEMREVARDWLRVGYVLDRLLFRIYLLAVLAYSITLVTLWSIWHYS
Nature of the experiment: 5-HT3 radioligand receptor binding, [3H]-GR65630, rat brain cortex membranes. Here is the method:
as §1
Procedure: GR65630 binds to the 5-HT3 receptor. Brain cortices were obtained from male rats and a membrane fraction prepared by standard techniques. 0.04 mg of membrane prep was incubated with 0.2 nM [^3 H]-GR65630 for 66 minutes at 22° C. […] Membranes were filtered and washed 3 times and the filters were counted to determine [^3 H]-GR65630 specifically bound. [Kilpatrick GJ, Jones BJ and Tyers MB, Identification and Distribution of 5-HT3 Receptors in Rat Brain Using Radioligand Binding Assay, Nature 330, 746-748 (1987)].

The next experiment has as its system 5-HT4 receptors. Particulars: cited from earlier work.
A further experiment deals with 5-HT3. Particulars: in vivo; cited from earlier work.
Experiment [3] has as its system guinea pig stomach strips. As to conditions: in vitro; cited from earlier work.
The next experiment concerns antroduodenal motility. As to conditions: dogs, cited from earlier work.
For experiment [4], the system named is 5-HT4 receptor. As to conditions: mouse embryonic colliculi neurons; cited from earlier work.
A further experiment has as its system myenteric neurons. As to conditions: cited from earlier work.
Experiment [5] relates to GI transit. Particulars: mice; cited from earlier work.

Entries after “also recorded” stand apart in the source; their conditions may differ. Structures can show the parent of a compound that is named as a salt.

T1 sequence (Q62758 whole entry): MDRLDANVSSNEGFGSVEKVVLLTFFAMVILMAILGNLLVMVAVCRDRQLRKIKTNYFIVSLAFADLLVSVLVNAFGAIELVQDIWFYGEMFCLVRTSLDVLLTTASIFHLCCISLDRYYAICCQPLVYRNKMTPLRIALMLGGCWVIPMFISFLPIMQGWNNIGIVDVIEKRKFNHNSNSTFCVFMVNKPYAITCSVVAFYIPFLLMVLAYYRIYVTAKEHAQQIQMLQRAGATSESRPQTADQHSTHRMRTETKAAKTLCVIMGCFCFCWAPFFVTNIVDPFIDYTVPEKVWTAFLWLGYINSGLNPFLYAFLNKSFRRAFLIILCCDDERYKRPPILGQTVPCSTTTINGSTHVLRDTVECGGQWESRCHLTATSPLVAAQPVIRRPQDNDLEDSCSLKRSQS

Take `COc1cc(N)c(Cl)cc1C(=O)NC1CN2CCC1CC2` (stereo not shown) [zacopride]: the gastric emptying entry in the experiment with gastric emptying is “enhanced gastric emptying”. As to `Cc1nccn1CC1CCc2c(c3ccccc3n2C)C1=O` (stereo not shown) [GR38032], the “GI transit / colonic transit” value in the experiment on GI transit [1] (man (S. Gore et al.)) was “not only failed to accelerate GI transit, but in fact slowed colonic transit in man”. The “small intestinal transit times or mouth-to-cecum transit times” value with GI transit [1] (man (Talley et al.)) is “did not alter small intestinal transit times or mouth-to-cecumtransit times”. Besides, in the experiment with gastric emptying, the gastric emptying result was “enhanced gastric emptying”. For `COc1cc(N)c(Cl)cc1C(=O)NC[C@@H]1[C@@H]2C[C@@H]3C[C@H]1CN3C2` [Example 11, Anti-4-amino-5-chloro-N-(hexahydro-2,6-methano-1H-pyrrolizin-8-ylmethyl)-2-methoxybenzamide, monohydrochloride], on 5-HT4 receptor [2], the EC50 was found to be 660 nM. Same read-out and setting: the value for `COc1cc(NC(C)=O)c(Cl)cc1C(=O)N[C@H]1[C@@H]2C[C@@H]3C[C@H]1CN3C2` [Example 1, Syn-4,(acetylamino)-5-chloro-N-(hexahydro-2,6-methano-1H-pyrrolizin8-yl)-2-methoxybenzamide] was 3340 nM. For `COc1cc(N)c(Cl)cc1C(=O)N[C@H]1[C@@H]2C[C@@H]3C[C@H]1CN3C2` [Example 4, Syn-4-amino-5-chloro-N-(hexahydro-2,6-methano-1H-pyrrolizin-8-yl)-2-methoxybenzamide, hydrochloride], on 5-HT4 receptor [2], the EC50 was found to be 712 nM. Moreover, the Ki on 5-HT3 receptor amounted to 22 nM. Take `NCCc1c[nH]c2ccc(O)cc12` [Serotonin, 5-hydroxytryptamine]: in the experiment on 5-HT4 receptors, the “peristaltic reflex mediated through 5-HT4 receptors” value was “mediated through agonism at 5-HT4 receptors”. As for `COc1cc(N)c(Cl)cc1C(=O)OC1C2CC3CC1CN3C2` (stereo not shown) [Example 13, (Hexahydro-2,6-methano-1H-pyrrolizin-8-yl) 4-amino-5-chloro-2-methoxybenzoate], the EC50 at 5-HT4 receptor [2] amounted to 216 nM. As for `CCN(CC)CCNC(=O)c1cc(Cl)c(N)cc1OC` [metoclopramide], the “5-HT3 mediated Bezold Jarisch reflex” value in the experiment on 5-HT3 is listed as “blocks the 5-HT3 mediated Bezold Jarisch reflex”. Also, the “guinea pig stomach strip contraction” value in [3] is listed as “enhanced electrical-field stimulated contractions in guinea pig stomach strips; also recorded: enhanced guinea pig stomach muscle strip contraction in vitro”. Also, in the experiment with gastric emptying, the gastric emptying result is given as “increases in gastric emptying rates in vivo”. As to `COc1cc(NC(C)=O)c(Cl)cc1C(=O)N[C@@H]1[C@@H]2C[C@@H]3C[C@H]1CN3C2` [Example 2, Anti-4-(acetylamino)-5-chloro-N-(hexahydro-2,6-methano-1H-pyrrolizin-8-yl)-2-methoxybenzamide], on 5-HT4 receptor [2], the EC50 was greater than 10000 nM.

On to `CN1[C@@H]2CC[C@H]1C[C@@H](OC(=O)c1cc(Cl)cc(Cl)c1)C2` [MDL 72222], for which the “guinea pig stomach strip contraction” value in experiment [3] is “enhanced guinea pig stomach muscle strip contraction in vitro”. The gastric emptying result with gastric emptying is reported as “increases in gastric emptying rates in vivo”. With `COc1cc(N)c(Cl)cc1C(=O)NCC1C2CC3CC1CN3C2` (stereo not shown) [Example 9, 4-Amino-5-chloro-N-(hexahydro,2,6-methano-1H-pyrrolizin-8-ylmethyl)-2-methoxybenzamide, monobydrochloride], the EC50 on 5-HT4 receptor [2] amounted to 397 nM. In the case of `COc1cc(N)c(Cl)cc1C(=O)NC1CCN(CCCOc2ccc(F)cc2)CC1OC` (stereo not shown) [Cisapride], the antroduodenal motility entry in the experiment on antroduodenal motility is reported as “enhanced antroduodenal motility in dogs”. In the experiment on 5-HT4 receptor [4], the “prokinetic activity correlated with agonist activity at 5-HT4 receptor” value is “correlate with agonist activity at a novel 5-HT4 receptor subtype”. Moreover, the “depolarization of myenteric neurons” value in the experiment with myenteric neurons is on record as “depolarize myenteric neurons”. The EC50 on 5-HT4 receptor [2] came out at 55 nM. In the case of `Cc1nccn1CC1CCc2c(c3ccccc3n2C)C1=O.Cl.O.O` (stereo not shown) [SN-307], in the experiment with GI transit [5], the “transit of a charcoal meal” value is recorded as “enhanced transit of a charcoal meal in mice”. Consider `CN1[C@@H]2CC[C@H]1C[C@@H](OC(=O)c1c[nH]c3ccccc13)C2` [ICS 205,930], for which the “guinea pig stomach strip contraction” value in [3] is “enhanced guinea pig stomach muscle strip contraction in vitro”. Moreover, the “effect on responses to cisapride” value in the experiment with antroduodenal motility (coadministered with cisapride) is listed as “did not affect the responses to cisapride when the agents were coadministered”. In addition, the gastric emptying result with gastric emptying was “increases in gastric emptying rates in vivo; also recorded: enhanced gastric emptying”. Turning to `COc1cc(N)c(Cl)cc1C(=O)N[C@H]1[C@@H]2C[C@@H]3C[C@H]1CN3C2` [Example 3, Syn-4-amino-5-chloro-N-(hexahydro,2,6-methano-1H-pyrrolizin-8-yl)-2-methoxybenzamide], the EC50 on 5-HT4 receptor [2] amounted to 2230 nM.

`Cc1nc[nH]c1CCC(=O)c1cn(C)c2ccccc12` [GR65630]: the Bmax on 5-HT3 receptor ([3H]-GR65630, rat brain cortex membranes) was found to be 154 fmol/mg protein. In addition, the “% Specific Binding” value at 5-HT3 receptor ([3H]-GR65630, non-specific binding in presence of 1 uM ICS 205,930) is 70%. For the compound `COc1cc(N)c(Cl)cc1C(=O)NC[C@H]1[C@@H]2C[C@@H]3C[C@H]1CN3C2` [Example 14, Syn-4-amino-5-chloro-N-(hexahydro-2,6-methano-1H-pyrrolizin-8-ylmethyl)-2-methoxybenzamide, monohydrochloride], at 5-HT4 receptor [2], the EC50 worked out at 421 nM. The compound further yielded a Ki at 5-HT3 receptor of 1.1 nM. Take `COc1cc(NC(C)=O)c(Cl)cc1C(=O)NCC1C2CC3CC1CN3C2` (stereo not shown) [Example 7, 4-(Acetylamino)-5-chloro-N-(hexahydro-2,6-methano-1H-pyrrolizin-8-ylmethyl)-2-methoxybenzamide, hydrochloride]: on 5-HT4 receptor [2], the EC50 was no less than 10000 nM.

On to `COc1cc(N)c(Cl)cc1C(=O)N[C@@H]1[C@@H]2C[C@@H]3C[C@H]1CN3C2` [Example 6, Anti-4-amino-5-chloro-N-(hexahydro-2,6-methano-1H pyrrolizin-8-yl)-2-methoxybenzamide, monohydrochloride], for which the EC50 on 5-HT4 receptor [2] came to 382 nM. The same compound registered a Ki at 5-HT3 receptor of 3.8 nM. Turning to `COc1cc(N)c(Cl)cc1C(=O)NC1CCN2CCCC1C2` (stereo not shown) [BRL-24924], the “prokinetic activity correlated with agonist activity at 5-HT4 receptor” value with 5-HT4 receptor [4] is “correlate with agonist activity at a novel 5-HT4 receptor subtype”. The “depolarization of myenteric neurons” value in the experiment on myenteric neurons is recorded as “depolarize myenteric neurons”. The “peristaltic reflex mediated through 5-HT4 receptors” value in the experiment with 5-HT4 receptors is on record as “mediated through agonism at 5-HT4 receptors”. On to `COc1cc(N)c(Cl)cc1C(=O)N[C@@H]1[C@@H]2C[C@@H]3C[C@H]1CN3C2` [Example 5, Anti-4-amino-5-chloro-N-(hexahydro-2,6-methano-1H-pyrrolizin-8-yl)-2-methoxybenzamide], for which the EC50 on 5-HT4 receptor [2] turned out to be 705 nM.

A word on the EC50: it is the midpoint of the concentration-response curve. As usually defined, the Ki is the equilibrium dissociation constant of an inhibitor or competing ligand from its target. A low value points to tighter binding.

Source of the values: US5530018A, “Meso-azanoradamantanes” (G. D. Searle & Co., priority 1994, dated 1996).
